Assay results published in patent US12180143B1, “8-((4-hydroxy-3-methoxyphenyl)diazenyl)naphthalene-1,3-disulfonic acid as an antioxidant compound” (KING FAISAL UNIVERSITY, priority 2023, dated 2024).

Assay: DPPH radical scavenging antioxidant test
Type: biochemical
Conditions: 517 nm; for Inhibition (radical scavenging inhibition): 0.2 mL DPPH (0.75 mM), compound 3 μM in ethanol, 30 min incubation in the dark
Procedure: The antioxidant properties of the 8-((4-hydroxy-3-methoxyphenyl)diazenyl) naphthalene-1,3-disulfonic acid were studied by adding 0.2 mL DPPH (0.75 mM)) to compound 8-((4-hydroxy-3-methoxyphenyl)diazenyl) naphthalene-1,3-disulfonic acid (III) (3 μM) in ethanol. After 30 min of incubation in the dark, the absorbance was read against a blank at 517 nm. Ascorbic acid (vitamin C) was used as standard antioxidants (positive control). A blank sample was prepared by 0.2 ml of DPPH in 3 mL ethanol. A negative control sample was run using ethanol instead of the sample. The radical scavenging inhibition was calculated using the following equation: […]

Structure (SMILES)	Inhibition (radical scavenging inhibition)	antioxidant potential to vanish the DPPH radical distinctive colors, compared to vitamin C (DPPH in vitro test, vitamin C as positive control)
O=C1O[C@H]([C@@H](O)CO)C(O)=C1O [vit c, Ascorbic acid, reference compound]	74%	
COc1cc(/N=N/c2cccc3cc(S(=O)(=O)O)cc(S(=O)(=O)O)c23)ccc1O [Product III, 8-((4-hydroxy-3-methoxyphenyl)diazenyl) naphthalene-1,3-disulfonic acid]	48%	high potential as an antioxidant compared to vitamin C
